From patent US11236066B2, “Crystalline forms of niraparib tosylate” (Apotex Inc., priority 2019, dated 2022)
Like-named read-outs stand apart in the source and are kept apart here.

Assays:
[1] = cited from earlier work; for Hygroscopicity: description in WO 2018/183354 A1, 4-methylbenzenesulfonate
[2] = 900 mL 0.01 N HCl buffer, 50 rpm, sample compressed at 1.5 metric tons for 1 minute
Method: Intrinsic dissolution rate (IDR) measurements were performed using a Wood apparatus. Samples were prepared by compressing the sample at 1.5 metric tons for 1 minute. A dissolution medium consisting of 900 mL 0.01 N HCl buffer, and rotation speed of 50 rpm was used for each experiment.

[3] = CHMP Assessment Report; cited from earlier work
[4] = 1 g sample, agitated in ball mill 2 hrs at 30 Hz, ambient relative humidity 60%
Method: Samples (1 g) were initially placed in a small glass dish inside a desiccator for 30 minutes. The initial electric field of each sample was then measured with a JCI 140 Static Monitor (John Chubb Instrumentation, England) wherein the height of the field meter from top of the glass dish was 2.5 cm. […] Each sample was then placed in a 20 mL plastic vial and agitated inside of a ball mill (Retsch Mixer Mill MM 301) for 2 hrs at 30 Hz. After the agitation period, each sample was returned to the glass dish and the electric field was measured. The ambient relative humidity during the experiments was 60%.

SMILES	Hygroscopicity ([1]; listed as crystalline Form I)	Intrinsic Dissolution Rate [2] [mg min^−1 cm^−2]	Biopharmaceutics Classification System (BCS) class [3]	Electric Field After Agitation [4] [kV]	Hygroscopicity [1]	Weight gain in DVS ([1]; up to 95% relative humidity (RH)) [%]
Cc1ccc(S(=O)(=O)O)cc1.NC(=O)c1cccc2cn(-c3ccc([C@@H]4CCCNC4)cc3)nc12 [Niraparib tosylate crystalline Form I, 2-{4-[(3S)-piperidin-3-yl]phenyl}-2H-indazole 7-carboxamide 4-methylbenzenesulfonate]	non-hygroscopic	0.1451	Class II	0.50	–	–
Cc1ccc(S(=O)(=O)O)cc1.NC(=O)c1cccc2cn(-c3ccc([C@@H]4CCCNC4)cc3)nc12 [crystalline Form III, 2-{4-[(3S)-piperidin-3-yl]phenyl}-2H-indazole 7-carboxamide 4-methylbenzenesulfonate]	–	–	–	–	very hygroscopic	15.8
